Here are results for 15 molecules from patent publication US20250213735A1, “NEUROPEPTIDE Y1 RECEPTOR (NPY1R) TARGETED THERAPEUTICS AND USES THEREOF” (Radionetics Oncology, Inc., priority 2023, published 2025).

Numbered stars: 1 amine (or outer) side, 2 acyl side, 3 side chain; on linkers, the order of the positions; unused ones are H or OH. Square brackets hold non-standard residues; d marks the D form. Peptide text beside a SMILES is read from it. * marks the point of attachment. dArg(Nω-CONH(CH2)2NHCOEt) = CCC(=O)NCCNC(=O)/N=C(/N)NCCC[C@@H](N)C(=O)O; DOTA = O=C(O)CN1CCN(CC(=O)O)CCN(CC(=O)*)CCN(CC(=O)O)CC1; X1 = O=C([C@H](c1ccc(OCCCN[*:1])cc1)N1Cc2ccccc2C1)[*:2]; NH(2,6-F2-4-OH-benzyl) = Oc1cc(F)c(CN*)c(F)c1; βAla = NCCC(=O)O

This assay addresses hNPY1R (Homo sapiens (Human), UniProt P25929). Nature of the assay: NPY1R binding assay (SK-N-MC membrane, [125I]-Peptide YY competition).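 Note: bound radioligand separated by filtration over GF/C filter plates and counted, Ki obtained by non-linear regression.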 Conditions: crude SK-N-MC membranes endogenously expressing NPY1R; [125I]-Peptide YY (human) 0.05 nM; 120 min at room temperature; read-out: hNPY1R binding Ki.

Sequence of hNPY1R (P25929 whole entry): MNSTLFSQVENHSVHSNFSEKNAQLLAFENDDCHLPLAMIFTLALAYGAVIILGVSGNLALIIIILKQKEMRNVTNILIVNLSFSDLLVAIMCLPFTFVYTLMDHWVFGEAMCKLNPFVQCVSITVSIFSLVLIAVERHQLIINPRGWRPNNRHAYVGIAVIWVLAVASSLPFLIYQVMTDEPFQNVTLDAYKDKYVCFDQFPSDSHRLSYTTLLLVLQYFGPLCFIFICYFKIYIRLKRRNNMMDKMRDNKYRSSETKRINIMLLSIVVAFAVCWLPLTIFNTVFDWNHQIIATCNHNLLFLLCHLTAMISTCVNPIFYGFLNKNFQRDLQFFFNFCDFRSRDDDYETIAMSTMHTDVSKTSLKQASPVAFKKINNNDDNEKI

As usually defined, the Ki is the dissociation constant of the complex between target and ligand, obtained from inhibition or displacement. For the molecule `CCC(=O)NCCNC(=O)/N=C(/N)NCCC[C@@H](NC(=O)[C@H](c1ccc(OCCCNC(=O)CCC(=O)NCCNC(=O)CCC(C(=O)O)N2CCN(CC(=O)O)CCN(CC(=O)O)CCN(CC(=O)O)CC2)cc1)N1Cc2ccccc2C1)C(=O)NCc1c(F)cc(O)cc1F` (stereo partly drawn) [compound 49, 2,2′,2″-(10-(4-((2-(4-((3-(4-((1S,4R,Z)-9-amino-4-((2,6-difluoro-4-hydroxybenzyl)carbamoyl)-1-(isoindolin-2-yl)-2,11,16-trioxo-3,8,10,12,15-pentaazaoctadec-9-en-1-yl)phenoxy)propyl)amino)-4-oxobutanamido)ethyl)amino)-1-carboxy-4-oxobutyl)-1,4,7,10-tetraazacyclododecane-1,4,7-triyl)triacetic acid], the Ki was less than 10 nM. Consider `CCC(=O)NCCNC(=O)/N=C(/N)NCCC[C@@H](NC(=O)[C@H](c1ccc(OCCCNC(=O)[C@@H](CC(N)=O)NC(=O)CCNC(=O)CN2CCN(CC(=O)O)CCN(CC(=O)O)CCN(CC(=O)O)CC2)cc1)N1Cc2ccccc2C1)C(=O)NCc1c(F)cc(O)cc1F` [compound 50, 2,2′,2″-(10-(2-((3-(((R)-4-amino-1-((3-(4-((1S,4R,Z)-9-amino-4-((2,6-difluoro-4-hydroxybenzyl)carbamoyl)-1-(isoindolin-2-yl)-2,11,16-trioxo-3,8,10,12,15-pentaazaoctadec-9-en-1-yl)phenoxy)propyl)amino)-1,4-dioxobutan-2-yl)amino)-3-oxopropyl)amino)-2-oxoethyl)-1,4,7,10-tetraazacyclododecane-1,4,7-triyl)triacetic acid], for which the Ki was less than 10 nM. In the case of `CCC(=O)NCCNC(=O)/N=C(/N)NCCC[C@@H](NC(=O)[C@H](c1ccc(OCCCNC(=O)[C@@H](CC(N)=O)NC(=O)[C@@H](CO)NC(=O)CCNC(=O)CN2CCN(CC(=O)O)CCN(CC(=O)O)CCN(CC(=O)O)CC2)cc1)N1Cc2ccccc2C1)C(=O)NCc1c(F)cc(O)cc1F` [compound 51, 2,2′,2″-(10-((8R,11R)-11-(2-amino-2-oxoethyl)-16-(4-((1S,4R,Z)-9-amino-4-((2,6-difluoro-4-hydroxybenzyl)carbamoyl)-1-(isoindolin-2-yl)-2,11,16-trioxo-3,8,10,12,15-pentaazaoctadec-9-en-1-yl)phenoxy)-8-(hydroxymethyl)-2,6,9,12-tetraoxo-3,7,10,13-tetraazahexadecyl)-1,4,7,10-tetraazacyclododecane-1,4,7-triyl)triacetic acid] it was less than 10 nM; in that of `CCC(=O)NCCNC(=O)/N=C(/N)NCCC[C@@H](NC(=O)[C@H](c1ccc(OCCCNC(=O)C[C@H]2NC(=O)[C@@H](CCNC(=O)CN3CCN(CC(=O)O)CCN(CC(=O)O)CCN(CC(=O)O)CC3)NC2=O)cc1)N1Cc2ccccc2C1)C(=O)NCc1c(F)cc(O)cc1F` [compound 52, 2,2′,2″-(10-(2-((2-((2R,5R)-5-(2-((3-(4-((1S,4R,Z)-9-amino-4-((2,6-difluoro-4-hydroxybenzyl)carbamoyl)-1-(isoindolin-2-yl)-2,11,16-trioxo-3,8,10,12,15-pentaazaoctadec-9-en-1-yl)phenoxy)propyl)amino)-2-oxoethyl)-3,6-dioxopiperazin-2-yl)ethyl)amino)-2-oxoethyl)-1,4,7,10-tetraazacyclododecane-1,4,7-triyl)triacetic acid], less than 10 nM; in that of `CCC(=O)NCCNC(=O)/N=C(/N)NCCC[C@@H](NC(=O)[C@H](c1ccc(OCCCNC(=O)C[C@H](O)C[C@H](O)CCNC(=O)CCC(=O)NCCNC(=O)CN2CCN(CC(=O)O)CCN(CC(=O)O)CCN(CC(=O)O)CC2)cc1)N1Cc2ccccc2C1)C(=O)NCc1c(F)cc(O)cc1F` [compound 53, 2,2′,2″-(10-((14R,16R)-22-(4-((1S,4R,Z)-9-amino-4-((2,6-difluoro-4-hydroxybenzyl)carbamoyl)-1-(isoindolin-2-yl)-2,11,16-trioxo-3,8,10,12,15-pentaazaoctadec-9-en-1-yl)phenoxy)-14,16-dihydroxy-2,7,10,18-tetraoxo-3,6,11,19-tetraazadocosyl)-1,4,7,10-tetraazacyclododecane-1,4,7-triyl)triacetic acid], less than 10 nM. With `CCC(=O)NCCNC(=O)/N=C(/N)NCCC[C@@H](NC(=O)[C@H](c1ccc(OCCCNC(=O)[C@@H](CO)NC(=O)[C@@H](CO)NC(=O)[C@@H](CO)NC(=O)CCNC(=O)CN2CCN(CC(=O)O)CCN(CC(=O)O)CCN(CC(=O)O)CC2)cc1)N1Cc2ccccc2C1)C(=O)NCc1c(F)cc(O)cc1F` [compound 54, 2,2′,2″-(10-((8R,11R,14R)-19-(4-((1S,4R,Z)-9-amino-4-((2,6-difluoro-4-hydroxybenzyl)carbamoyl)-1-(isoindolin-2-yl)-2,11,16-trioxo-3,8,10,12,15-pentaazaoctadec-9-en-1-yl)phenoxy)-8,11,14-tris(hydroxymethyl)-2,6,9,12,15-pentaoxo-3,7,10,13,16-pentaazanonadecyl)-1,4,7,10-tetraazacyclododecane-1,4,7-triyl)triacetic acid] ({DOTA-βAla}-[dS][dS][dS][X1][dArg(Nω-CONH(CH2)2NHCOEt)]-{NH(2,6-F2-4-OH-benzyl)}), the Ki is less than 10 nM. In the case of `CCC(=O)NCCNC(=O)/N=C(/N)NCCC[C@@H](NC(=O)[C@H](c1ccc(OCCCNC(=O)CCN(C)CCNC(=O)CN2CCN(CC(=O)O)CCN(CC(=O)O)CCN(CC(=O)O)CC2)cc1)N1Cc2ccccc2C1)C(=O)NCc1c(F)cc(O)cc1F` [compound 55, 2,2′,2″-(10-(2-((2-((3-((3-(4-((1S,4R,Z)-9-amino-4-((2,6-difluoro-4-hydroxybenzyl)carbamoyl)-1-(isoindolin-2-yl)-2,11,16-trioxo-3,8,10,12,15-pentaazaoctadec-9-en-1-yl)phenoxy)propyl)amino)-3-oxopropyl)(methyl)amino)ethyl)amino)-2-oxoethyl)-1,4,7,10-tetraazacyclododecane-1,4,7-triyl)triacetic acid] it was less than 10 nM; in that of `CCC(=O)NCCNC(=O)/N=C(/N)NCCC[C@@H](NC(=O)[C@H](c1ccc(OCCCN(C)CCCCCNC(=O)CN2CCN(CC(=O)O)CCN(CC(=O)O)CCN(CC(=O)O)CC2)cc1)N1Cc2ccccc2C1)C(=O)NCc1c(F)cc(O)cc1F` [compound 56, 2,2′,2″-(10-(2-((5-((3-(4-((1S,4R,Z)-9-amino-4-((2,6-difluoro-4-hydroxybenzyl)carbamoyl)-1-(isoindolin-2-yl)-2,11,16-trioxo-3,8,10,12,15-pentaazaoctadec-9-en-1-yl)phenoxy)propyl)(methyl)amino)pentyl)amino)-2-oxoethyl)-1,4,7,10-tetraazacyclododecane-1,4,7-triyl)triacetic acid], less than 10 nM. Take `CCC(=O)NCCNC(=O)/N=C(/N)NCCC[C@@H](NC(=O)[C@H](c1ccc(OCCCCNC(=O)CCCCCNC(=O)CN2CCN(CC(=O)O)CCN(CC(=O)O)CCN(CC(=O)O)CC2)cc1)N1Cc2ccccc2C1)C(=O)NCc1ccc(O)cc1` [compound 57, 2,2′,2″-(10-(2-((6-((4-(4-((1S,4R,Z)-9-amino-4-((4-hydroxybenzyl)carbamoyl)-1-(isoindolin-2-yl)-2,11,16-trioxo-3,8,10,12,15-pentaazaoctadec-9-en-1-yl)phenoxy)butyl)amino)-6-oxohexyl)amino)-2-oxoethyl)-1,4,7,10-tetraazacyclododecane-1,4,7-triyl)triacetic acid]: the Ki is less than 10 nM. Then `CCC(=O)NCCNC(=O)/N=C(/N)NCCC[C@@H](NC(=O)[C@H](c1ccc(OCCNC(=O)CCCCCNC(=O)CN2CCN(CC(=O)O)CCN(CC(=O)O)CCN(CC(=O)O)CC2)cc1)N1Cc2ccccc2C1)C(=O)NCc1ccc(O)cc1` [compound 58, 2,2′,2″-(10-(2-((6-((2-(4-((1S,4R,Z)-9-amino-4-((4-hydroxybenzyl)carbamoyl)-1-(isoindolin-2-yl)-2,11,16-trioxo-3,8,10,12,15-pentaazaoctadec-9-en-1-yl)phenoxy)ethyl)amino)-6-oxohexyl)amino)-2-oxoethyl)-1,4,7,10-tetraazacyclododecane-1,4,7-triyl)triacetic acid], with less than 10 nM; and `CCC(=O)NCCNC(=O)/N=C(/N)NCCC[C@@H](NC(=O)[C@H](c1ccc(OCCCNC(=O)CN2CCN(CC(=O)O)CCN(CC(=O)O)CCN(CC(=O)O)CC2)cc1)N1Cc2ccccc2C1)C(=O)NCc1ccc(O)cc1` [compound 59, 2,2′,2″-(10-(2-((3-(4-((1S,4R,Z)-9-amino-4-((4-hydroxybenzyl)carbamoyl)-1-(isoindolin-2-yl)-2,11,16-trioxo-3,8,10,12,15-pentaazaoctadec-9-en-1-yl)phenoxy)propyl)amino)-2-oxoethyl)-1,4,7,10-tetraazacyclododecane-1,4,7-triyl)triacetic acid], with less than 10 nM; and `CCC(=O)NCCNC(=O)/N=C(/N)NCCC[C@@H](NC(=O)C(c1ccccc1)N1Cc2ccccc2C1)C(=O)NCc1ccc(O)cc1` (stereo partly drawn) [compound 60, (2R)—N-(4-hydroxybenzyl)-2-(2-(isoindolin-2-yl)-2-phenylacetamido)-5-((Z)-2-((2-propionamidoethyl)carbamoyl)guanidino)pentanamide], with less than 10 nM.

In the case of `CCC(=O)NCCNC(=O)/N=C(/N)NCCC[C@@H](NC(=O)[C@H](c1cccc(NCCCN)c1)N1Cc2ccccc2C1)C(=O)NCc1ccc(O)cc1` [compound 63, (R)-2-((S)-2-(3-((3-aminopropyl)amino)phenyl)-2-(isoindolin-2-yl)acetamido)-N-(4-hydroxybenzyl)-5-((Z)-2-((2-propionamidoethyl)carbamoyl)guanidino)pentanamide], the Ki is less than 10 nM. In the case of `CCNC(=O)/N=C(/N)NCCC[C@@H](NC(=O)[C@H](c1ccccc1)N1Cc2cccc(NCCCN)c2C1)C(=O)NCc1c(F)cc(O)cc1F` [compound 65, (R)-2-((S)-2-(4-((3-aminopropyl)amino)isoindolin-2-yl)-2-phenylacetamido)-N-(2,6-difluoro-4-hydroxybenzyl)-5-((Z)-2-(ethylcarbamoyl)guanidino)pentanamide] it was less than 10 nM; in that of `CCNC(=O)/N=C(/N)NCCC[C@@H](NC(=O)C(c1ccccc1)N1Cc2ccccc2C1)C(=O)NCc1c(F)cc(O)cc1F` (stereo partly drawn) [compound 67, (2R)—N-(2,6-difluoro-4-hydroxybenzyl)-5-((Z)-2-(ethylcarbamoyl)guanidino)-2-(2-(isoindolin-2-yl)-2-phenylacetamido)pentanamide], less than 10 nM.
